Test results as given in patent US6869935B2, “Gene Therapy for proliferative vitreoretinopathy” (priority 1996, dated 2005).
Values after ≈ are worked out from the molar mass of the structure shown.

Tests used:
[1] = tested on: fibroblasts bearing the HSV-TK gene; conditions: rabbits; intraocular injection of fibroblasts bearing the HSV-TK gene; cited from earlier work
HSV-tk negative RDFs = assay: In vitro sensitivity to ganciclovir (XTT assay), HSV-tk negative RDFs; format: cell-based, rabbit; conditions: concentration range 0.001-50 μg/ml
Description: (§1) The sensitivity of HSV-tk positive RDFs (100% HSV-tk transduced RDFs) and HSV-tk negative RDFs to ganciclovir was determined by using a tetrazolium-based calorimetric assay (XTT assay) (Scudiero et al., Cancer Research, Vol. 48, pgs. 4827-4833 (1988); Roehm et al., J. Immunol. Methods, Vol. 142, pgs. 257-265 (1991)). HSV-tk positive RDFs and HSV-tk negative RDFs were seeded at a density of 5×10^3 cells/well of 96-well culture plates (Corning) and incubated with DMEM-10 at 37° C. in 5% CO2 overnight. Then cells were treated with DMEM-10 containing various concentrations of ganciclovir (GCV; Cytovene; Syntex Inc., Palo Alto, Calif.) or only DMEM-10. After a total of 72 hr incubation, XTT assay was performed using a kit (cell proliferation II; Boehringer Mannheim, Indianapolis, Ind.). The results were read on a microplate reader (MR700; Dynatech Laboratories, Inc., Chantilly, Va.).

[2] = tested on: experimental proliferative vitreoretinopathy (HSV-tk positive/negative RDFs); assay: In vivo bystander effect in experimental proliferative vitreoretinopathy; design: species or system pigmented rabbits
Description: The right eye was used from each of 20 pigmented rabbits of both sexes, weighing 2.5 to 3.5 kg each. Vitrectomy was performed in the same manner as described above. One week after vitrectomy, group D (n=7) received an injection into the vitreous cavity of a mixture of 0.25×10^4 homologous HSV-tk positive RDFs (5% of total cells) and 4.75×10^4 homologous HSV-tk negative RDFs (95% of total cells). Group E (n=7) received a mixture of 0.05×10^4 homologous HSV-tk positive RDFs […] HSV-tk negative RDFs (95% of total cells). Group F (n=6) received 5.0×10^4 homologous HSV-tk negative RDFs as a control. All eyes received 200 μg of ganciclovir (0.1 ml of solution dissolved in distilled water) just after the cell injection and on day 4. Indirect ophthalmoscopic examinations were performed in a masked fashion on days 4, 7, 14 and 28. Clinical severity of PVR was graded from 0 to 5 as described above.

HSV-tk positive RDFs = assay: In vitro sensitivity to ganciclovir (XTT assay), HSV-tk positive RDFs; format: cell-based, rabbit; conditions: Oryctolagus cuniculus, 72 hr of incubation, read-out: IC50 (concentration required for 50% cytotoxicity)
Description: as §1

[3] = tested on: mixtures of HSV-tk-positive and -negative RDFs; assay: In vitro bystander effect, cocultures of HSV-tk positive and negative cells; format: cell-based, rabbit; conditions: 1 μg/ml ganciclovir; 3 days of incubation; effect depended on percentage of HSV-tk positive cells
Description: To determine the cytotoxic effect of a small number of HSV-tk positive cells on neighboring HSV-tk-negative cells, cocultures of HSV-tk positive cells and HSV-tk-negative cells were performed by mixing these two cells in varying proportions. Briefly, mixtures of HSV-tk-positive and -negative RDFs (2.0×10^4 cells/well) were seeded at various mixing ratios (0, 1.0, 2.5, 5.0, 10, and 100% HSV-tk-positive cells of total cells) in 24-well culture plates (Corning) and incubated at 37° C. in 5% CO2 overnight. Cells were then treated with 1 μg/ml ganciclovir for 3, 5, and 7 days. The number of cells was counted with a Coulter counter (Coulter Electronics, Inc., Hialeah, Fla.).

Nc1nc(O)c2ncn(COC(CO)CO)c2n1 [ganciclovir]
Experimental PVR [1]: inhibited | Toxicity to HSV-tk negative RDFs (HSV-tk negative RDFs): no significant toxicity | Retinal detachment (stages 3-5) ([2]; group D (5% HSV-tk positive RDFs), 200 μg ganciclovir intravitreal after cell injection and day 4, day 4 and day 7): no retinal detachment | Retinal detachment (stages 3-5) ([2]; group D (5% HSV-tk positive RDFs), 200 μg ganciclovir, day 14 and day 28): No eyes showed retinal detachment | Retinal detachment (stages 3-5) ([2]; group E (1% HSV-tk positive RDFs), 200 μg ganciclovir, day 4 and day 7): no retinal detachment | Eyes with retinal detachment (stages 3-5) ([2]; group E (1% HSV-tk positive RDFs), 200 μg ganciclovir, day 14 and day 28): 14.3% | Eyes with retinal detachment (stages 3-5) ([2]; group F (100% HSV-tk negative RDFs), 200 μg ganciclovir, day 4): 16.7% | Eyes with retinal detachment (stages 3-5) ([2]; group F (100% HSV-tk negative RDFs), 200 μg ganciclovir, day 7): 50% | Eyes with retinal detachment (stages 3-5) ([2]; group F (100% HSV-tk negative RDFs), 200 μg ganciclovir, day 14 and day 28): 66.7% | IC50 (HSV-tk positive RDFs): 0.1 µg/mL (≈ 0.392 µM) | Proliferation of co-culturing cells [3]: inhibited proliferation of co-culturing cells
